Laboratory results reported in ChEMBL document CHEMBL4725351, “Cyclic Derivative of Host-Defense Peptide IDR-1018 Improves Proteolytic Stability, Suppresses Inflammation, and Enhances In Vivo Activity” (J Med Chem, 2020).
Activity calls are given as the source filed them. No cut-off for these calls is given here.

Key:
Staphylococcus aureus [1] = assay: Antibacterial activity against methicillin-resistant Staphylococcus aureus SAP0017 measured after overnight incubation by microtitre plate based spectrophotometric method; format: functional
Staphylococcus aureus [2] = assay: Antibacterial activity against methicillin-resistant Staphylococcus aureus USA300 LAC measured after overnight incubation by microtitre plate based spectrophotometric method; format: functional
Pseudomonas aeruginosa [3] = assay: Antibacterial activity against Pseudomonas aeruginosa PA14 measured after overnight incubation by microtitre plate based spectrophotometric method; format: functional
Pseudomonas aeruginosa [4] = assay: Antibacterial activity against Pseudomonas aeruginosa PAO1 measured after overnight incubation by microtitre plate based spectrophotometric method; format: functional
Escherichia coli [5] = assay: Antibacterial activity against Escherichia coli ATTC 489 measured after overnight incubation by microtitre plate based spectrophotometric method; format: functional
Acinetobacter baumannii [6] = assay: Antibacterial activity against Acinetobacter baumannii 5015 measured after overnight incubation by microtitre plate based spectrophotometric method; format: functional
Acinetobacter baumannii [7] = assay: Antibacterial activity against Acinetobacter baumannii 17918 measured after overnight incubation by microtitre plate based spectrophotometric method; format: functional
Klebsiella pneumoniae [8] = assay: Antibacterial activity against Klebsiella pneumoniae ATTC 13883 measured after overnight incubation by microtitre plate based spectrophotometric method; format: functional
Staphylococcus aureus [9] = assay: Antibiofilm activity against methicillin-resistant Staphylococcus aureus USA300 LAC incubated for 24 hrs under shaking condition by turbidometric method; format: functional
Pseudomonas aeruginosa [10] = assay: Antibiofilm activity against Pseudomonas aeruginosa PA14 incubated for 24 hrs under shaking condition by turbidometric method; format: functional
Pseudomonas aeruginosa [11] = assay: Antibiofilm activity against Pseudomonas aeruginosa PAO1 incubated for 24 hrs under shaking condition by turbidometric method; format: functional
Escherichia coli [12] = assay: Antibiofilm activity against Escherichia coli ATTC 489 incubated for 24 hrs under shaking condition by turbidometric method; format: functional
Acinetobacter baumannii [13] = assay: Antibiofilm activity against Acinetobacter baumannii 5015 incubated for 24 hrs under shaking condition by turbidometric method; format: functional
Acinetobacter baumannii [14] = assay: Antibiofilm activity against Acinetobacter baumannii 17918 incubated for 24 hrs under shaking condition by turbidometric method; format: functional
Klebsiella pneumoniae [15] = assay: Antibiofilm activity against Klebsiella pneumoniae ATTC 13883 incubated for 24 hrs under shaking condition by turbidometric method; format: functional
Pseudomonas aeruginosa [16] = assay: Antibiofilm activity against 24 hrs preformed Pseudomonas aeruginosa PA14 biofilm assessed as reduction in biofilm viability at 7.2 to 30.3 uM by TTC assay relative to control; format: functional; settings: dose microM 7.2-30.3
Pseudomonas aeruginosa [17] = assay: Antibiofilm activity against 24 hrs preformed Pseudomonas aeruginosa PAO1 biofilm assessed as reduction in biofilm viability at 7.2 to 30.3 uM by TTC assay relative to control; format: functional; settings: dose microM 7.2-30.3
Escherichia coli [18] = assay: Antibiofilm activity against 24 hrs preformed Escherichia coli ATTC 489 biofilm assessed as reduction in biofilm viability at 7.2 to 30.3 uM by TTC assay relative to control; format: functional; settings: dose microM 7.2-30.3
Acinetobacter baumannii [19] = assay: Antibiofilm activity against 24 hrs preformed Acinetobacter baumannii 5015 biofilm assessed as reduction in biofilm viability at 7.2 to 30.3 uM by TTC assay relative to control; format: functional; settings: dose microM 7.2-30.3
Acinetobacter baumannii [20] = assay: Antibiofilm activity against 24 hrs preformed Acinetobacter baumannii 17918 biofilm assessed as reduction in biofilm viability at 7.2 to 30.3 uM by TTC assay relative to control; format: functional; settings: dose microM 7.2-30.3
Klebsiella pneumoniae [21] = assay: Antibiofilm activity against 24 hrs preformed Klebsiella pneumoniae ATTC 13883 biofilm assessed as reduction in biofilm viability at 7.2 to 30.3 uM by TTC assay relative to control; format: functional; settings: dose microM 7.2-30.3
Trypsin [22] = target: T1, Trypsin (Homo sapiens, UniProt P07477+P07478+P35030); assay: Stability of the compound in pH 8.2 ammonium bicarbonate buffer assessed as trypsin (unknown origin)-mediated compound cleavage at carboxy-terminal side of arginine at 20 ug/ml measured within 30 mins by RP-HPLC analysis; format: ADME, protein assay; settings: pH 8.2, 0.5 h, at 20 µg/mL
Trypsin [23] = target: T1, Trypsin; assay: Stability of the compound in pH 8.2 ammonium bicarbonate buffer assessed as trypsin (unknown origin)-ILPWK formation at 20 ug/ml measured within 30 mins by MALDI-TOF analysis; format: ADME, protein assay; settings: pH 8.2, 0.5 h, dose 20 µg/ml
Trypsin [24] = target: T1, Trypsin; assay: Stability of the compound in pH 8.2 ammonium bicarbonate buffer assessed as trypsin (unknown origin)-mediated drug degradation at 20 ug/ml measured up to 120 mins by MALDI-TOF analysis; format: ADME, protein assay; settings: pH 8.2, 2 h, at 20 µg/mL
Trypsin [25] = target: T1, Trypsin; assay: Stability of the compound in pH 8.2 ammonium bicarbonate buffer assessed as trypsin (unknown origin)-mediated drug degradation at 20 ug/ml measured up to 120 mins by RP-HPLC analysis; format: ADME, protein assay; settings: pH 8.2, 2 h, at 20 µg/mL
Trypsin [26] = target: T1, Trypsin; assay: Stability of the compound in pH 8.2 ammonium bicarbonate buffer assessed as trypsin (unknown origin)-mediated drug degradation at 20 ug/ml measured after 120 mins by RP-HPLC analysis; format: ADME, protein assay; settings: buffer, pH 8.2, 2 h, at 20 µg/mL
[27] = Aggregation property of the compound in water at 1 mg/ml by turbidimetric method; format: physicochemical; settings: buffer
[28] = Aggregation property of the compound in saline at 1 mg/ml by turbidimetric method; format: physicochemical; settings: buffer
[29] = Aggregation property of the compound in 5% dextrose at 1 mg/ml by turbidimetric method; format: physicochemical
[30] = Aggregation property of the compound in RPMI medium with 1% FBS at 1 mg/ml by turbidimetric method; format: physicochemical
[31] = Aggregation property of the compound in sodium citrate solution at 10 mM by turbidimetric method; format: physicochemical; settings: 10000 µM
[32] = Aggregation property of the compound in sodium phosphate solution at 10 mM by turbidimetric method; format: physicochemical; settings: 10000 µM
[33] = Aggregation property of the compound in sodium nitrate solution at 10 mM by turbidimetric method; format: physicochemical; settings: 10000 µM
[34] = Aggregation of the compound in human PBMC assessed as amorphous morphology at 50 ug/ml measured after 4 hrs by microscopic analysis; format: ADME, tissue-based; settings: dose 50 µg/ml
[35] = Cytotoxicity against human PBMC assessed as reduction in cell viability at 100 ug/ml measured after 24 hrs by LDH assay; format: tissue-based; settings: dose 100 µg/ml
PBMC [36] = assay: Immunomodulatory activity in human PBMC assessed as increase in MCP1 production at 25 ug/ml measured after overnight incubation by ELISA; format: functional, tissue-based; settings: dose 25.0 µg/ml
PBMC [37] = assay: Immunomodulatory activity in human PBMC assessed as change in TNFalpha production at 25 ug/ml measured after overnight incubation by ELISA; format: functional, tissue-based; settings: dose 25.0 µg/ml
PBMC [38] = assay: Immunomodulatory activity in human PBMC assessed as increase in IL-1RA production at 25 ug/ml measured after overnight incubation by ELISA; format: functional, tissue-based; settings: dose 25.0 µg/ml
PBMC [39] = assay: Immunomodulatory activity in human PBMC assessed as reduction in LPS-induced TNFalpha production at 25 ug/ml measured after overnight incubation by ELISA; format: functional, tissue-based; settings: dose 25.0 µg/ml
[40] = Immunomodulatory activity in human PBMC assessed as increase in LPS-induced MCP1 production at 25 ug/ml measured after overnight incubation by ELISA; format: functional; settings: dose 25 µg/ml
PBMC [41] = assay: Immunomodulatory activity in human PBMC assessed as reduction in LPS-induced IL1beta production at 25 ug/ml measured after overnight incubation by ELISA; format: functional, tissue-based; settings: dose 25.0 µg/ml
[42] = Toxicity in CD1 mouse assessed as precipitation under the skin at 10 mg/kg, sc measured after 16 hrs; format: organism-based; settings: in vivo
Staphylococcus aureus [43] = assay: Antibacterial activity against Staphylococcus aureus USA300 LAC infected in CD1 mouse assessed as dermonecrosis area at 7.5 mg/kg, sc administered at infection site measured after 3 days by caliper method (Rvb > 75 mm2); format: functional; settings: time 3 day

Question: For H-VRLIVAVRIWRR-NH2, which MIC (Staphylococcus aureus [1]) is on record?
Answer: The MIC was 32.5 µM.

Question: What about the MIC (Staphylococcus aureus [2]) of the same substance?
Answer: Its MIC is 32.5 µM.

Question: And the MIC (Pseudomonas aeruginosa [3])?
Answer: The MIC was 32.5 µM.

Question: What about the MIC (Pseudomonas aeruginosa [4]) of the same substance?
Answer: Its MIC is 32.5 µM.

Question: And the MIC (Escherichia coli [5])?
Answer: The MIC was 65.8 µM.

Question: And the MIC (Acinetobacter baumannii [6])?
Answer: Its MIC is 32.5 µM.

Question: And the MIC (Acinetobacter baumannii [7])?
Answer: The MIC was 32.5 µM.

Question: What about the MIC (Klebsiella pneumoniae [8]) of the same substance?
Answer: Its MIC is 16.2 µM.

Question: What about the MBEC (Staphylococcus aureus [9]) of the same substance?
Answer: The MBEC was 7.8 µM.

Question: What about the MBEC (Pseudomonas aeruginosa [10]) of the same substance?
Answer: Its MBEC is 16.2 µM.

Question: What about the MBEC (Pseudomonas aeruginosa [11]) of the same substance?
Answer: The MBEC was 16.2 µM.

Question: What about the MBEC (Escherichia coli [12]) of the same substance?
Answer: Its MBEC is 10.4 µM.

Question: And the MBEC (Acinetobacter baumannii [13])?
Answer: The MBEC was 16.2 µM.

Question: What about the MBEC (Acinetobacter baumannii [14]) of the same substance?
Answer: Its MBEC is 16.2 µM.

Question: What about the MBEC (Klebsiella pneumoniae [15]) of the same substance?
Answer: The MBEC was 10.4 µM.

Question: And the Activity (Pseudomonas aeruginosa [16])?
Answer: The Activity was 70%.

Question: What about the Activity (Pseudomonas aeruginosa [17]) of the same substance?
Answer: Its Activity is 70%.

Question: What about the Activity (Escherichia coli [18]) of the same substance?
Answer: The Activity was 70%.

Question: And the Activity (Acinetobacter baumannii [19])?
Answer: Its Activity is 70%.

Question: And the Activity (Acinetobacter baumannii [20])?
Answer: The Activity was 70%.

Question: And the Activity (Klebsiella pneumoniae [21])?
Answer: Its Activity is 70%.

Question: What about the Stabilty (Trypsin [22]) of the same substance?
Answer: Its Stabilty is “Unstable”.

Question: And the Drug metabolism (Trypsin [23])?
Answer: Its Drug metabolism is “Metabolite_Detected”.

Question: What about the Stabilty (Trypsin [24]) of the same substance?
Answer: Its Stabilty is “Stable”.

Question: What about the Stabilty (Trypsin [25]) of the same substance?
Answer: Its Stabilty is “Stable”.

Question: And the Stabilty (Trypsin [26])?
Answer: Its Stabilty is “Unstable”.

Question: And the Activity [27]?
Answer: Its Activity is “Not Active”.

Question: And the Activity [28]?
Answer: Its Activity is “Not Active”.

Question: And the Activity [29]?
Answer: Its Activity is “Not Active”.

Question: What about the Activity [30] of the same substance?
Answer: The Activity was “Active”.

Question: And the Activity [31]?
Answer: Its Activity is “Active”.

Question: And the Activity [32]?
Answer: The Activity was “Active”.

Question: And the Activity [33]?
Answer: The Activity was “Active”.

Question: What about the Activity [34] of the same substance?
Answer: Its Activity is “Active”.

Question: What about the Activity [35] of the same substance?
Answer: The Activity was “Toxic”.

Question: And the Activity (PBMC [36])?
Answer: The Activity was “Active”.

Question: And the Activity (PBMC [37])?
Answer: The Activity was “inactive”.

Question: And the Activity (PBMC [38])?
Answer: The Activity was “Active”.

Question: What about the Activity (PBMC [39]) of the same substance?
Answer: Its Activity is “Active”.

Question: What about the Activity [40] of the same substance?
Answer: Its Activity is 35%.

Question: What about the Activity (PBMC [41]) of the same substance?
Answer: The Activity was “Active”.

Question: What about the Activity [42] of the same substance?
Answer: The Activity was “Toxic”.

Question: What about the Activity (Staphylococcus aureus [43]) of the same substance?
Answer: Its Activity is 30 mm2.
